Data as given in ChEMBL document CHEMBL1143107 (Bioorg Med Chem, 2008).

Experiments:
[1] = target: T1, Prostaglandin G/H synthase 2 (Homo sapiens, UniProt P35354)
T1 sequence (P35354 whole entry): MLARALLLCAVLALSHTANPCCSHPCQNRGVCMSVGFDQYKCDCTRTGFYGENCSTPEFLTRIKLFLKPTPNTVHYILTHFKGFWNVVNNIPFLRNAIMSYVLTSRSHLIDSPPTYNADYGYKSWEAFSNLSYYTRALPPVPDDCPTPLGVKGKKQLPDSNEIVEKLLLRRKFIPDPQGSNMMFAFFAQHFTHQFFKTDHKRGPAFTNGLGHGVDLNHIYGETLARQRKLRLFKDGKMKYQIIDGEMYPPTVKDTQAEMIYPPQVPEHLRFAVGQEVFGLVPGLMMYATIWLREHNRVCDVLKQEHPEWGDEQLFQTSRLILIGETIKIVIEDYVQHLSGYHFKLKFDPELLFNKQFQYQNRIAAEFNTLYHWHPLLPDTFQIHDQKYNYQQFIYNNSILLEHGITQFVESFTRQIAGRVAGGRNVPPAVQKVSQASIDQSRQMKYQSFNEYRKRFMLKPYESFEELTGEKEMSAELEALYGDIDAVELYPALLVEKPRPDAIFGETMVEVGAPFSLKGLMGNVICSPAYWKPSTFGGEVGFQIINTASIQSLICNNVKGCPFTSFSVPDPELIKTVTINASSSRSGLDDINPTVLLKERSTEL

Homo sapiens [2] = species: Homo sapiens; test: Ratio of IC50 for human COX1 to IC50 for human COX2 in human whole blood; format: tissue-based
[3] = target: T1, Prostaglandin G/H synthase 2; remark: listed apart in the source
Description: Inhibition of human COX2 in human whole blood

Homo sapiens [4] = species: Homo sapiens; test: Ratio of IC50 for human COX1 to IC50 for human COX2

| Structure (SMILES) | IC50 [1] | IC50 [3] | Ratio IC50 (Homo sapiens [4]) | Ratio IC50 (Homo sapiens [2]) |
| --- | --- | --- | --- | --- |
| CS(=O)(=O)c1ccc(-c2nc(NCc3ccco3)cc(C(F)(F)F)n2)cc1 | 0.201 µM | 0.14 µM | > 498 | > 497 |
| NS(=O)(=O)c1ccc(-c2nc(NCc3cc4ccccc4s3)cc(C(F)(F)F)n2)cc1 | 0.0152 µM | 0.14 µM | 6570 | > 71 |
| NS(=O)(=O)c1ccc(-c2nc(NCc3ccncc3)cc(C(F)(F)F)n2)cc1 | 1.89 µM | 3.33 µM | > 52 | > 3 |
| NS(=O)(=O)c1ccc(-c2nc(NCC3CCCCC3)cc(C(F)(F)F)n2)cc1 | 0.712 µM | 0.803 µM | > 140 | > 124 |
| NS(=O)(=O)c1ccc(-c2nc(NCc3cccnc3)cc(C(F)(F)F)n2)cc1 | > 10 µM | > 10 µM | > 1 | > 1 |
| NS(=O)(=O)c1ccc(-c2nc(NCc3csc4ccccc34)cc(C(F)(F)F)n2)cc1 | 10 µM | > 10 µM | > 10 | > 1 |
| CS(=O)(=O)c1ccc(-c2nc(NCC3CC=CCC3)cc(C(F)(F)F)n2)cc1 (centres undefined) | 0.0431 µM | 0.0329 µM | > 2320 | > 304 |
| CS(=O)(=O)c1ccc(-c2nc(NC3CCCC3)cc(C(F)(F)F)n2)cc1 | 0.192 µM | 0.476 µM | > 522 | 80 |
| NS(=O)(=O)c1ccc(-c2nc(NCc3ccccn3)cc(C(F)(F)F)n2)cc1 | 3 µM | > 10 µM | > 33 | > 10 |
| NS(=O)(=O)c1ccc(-c2nc(NCc3ccco3)cc(C(F)(F)F)n2)cc1 | 0.0144 µM | 2.79 µM | > 6920 | > 3 |

More lines, main results first:

| IC50 [1] | IC50 [3] | Ratio IC50 (Homo sapiens [4]) | Structure (SMILES) | Ratio IC50 (Homo sapiens [2]) |
| --- | --- | --- | --- | --- |
| > 10 µM | > 10 µM | > 1 | CS(=O)(=O)c1ccc(-c2nc(NCc3cccnc3)cc(C(F)(F)F)n2)cc1 | > 1 |
| 10 µM | > 10 µM | > 1 | CS(=O)(=O)c1ccc(-c2nc(NCc3csc4ccccc34)cc(C(F)(F)F)n2)cc1 | > 1 |
| > 10 µM | > 10 µM | > 1 | CS(=O)(=O)c1ccc(-c2nc(NCc3ccc4ccccc4c3)cc(C(F)(F)F)n2)cc1 | > 1 |
| 3.98 µM | > 10 µM | > 25 | NS(=O)(=O)c1ccc(-c2nc(NCc3ccccc3)cc(C(F)(F)F)n2)cc1 | > 5 |
| > 10 µM | > 10 µM | > 1 | CS(=O)(=O)c1ccc(-c2nc(NCc3nc4ccccc4[nH]3)cc(C(F)(F)F)n2)cc1 | > 1 |
| > 10 µM | > 10 µM | > 1 | CS(=O)(=O)c1ccc(-c2nc(NCc3ccccn3)cc(C(F)(F)F)n2)cc1 | > 1 |
